Organism: Rattus norvegicus
Test: DrugMatrix - Regimen: Daily Repeat
Type: toxicity, organism-based, Sprague-Dawley
Parameters: regimen Daily Repeat, gender Male, age 6-8 weeks
Details: in vivo, po, route oral GAVAGE, vehicle .5 % CMC; for ABSOLUTE BASOPHIL / ABSOLUTE EOSINOPHIL / ABSOLUTE LYMPHOCYTE / ABSOLUTE MONOCYTE / ABSOLUTE SEGMENTED NEUTROPHIL / BASOPHIL / EOSINOPHIL / ERYTHROCYTE COUNT / HEMATOCRIT / HEMOGLOBIN / LEUKOCYTE COUNT / LYMPHOCYTE / MEAN CORPUSCULAR HEMOGLOBIN / MEAN CORPUSCULAR HEMOGLOBIN CONCENTRATION / MEAN CORPUSCULAR VOLUME / MONOCYTE / NEUTROPHIL / NUCLEATED RED BLOOD CELLS / PLATELET COUNT: tissue Blood; for ALANINE AMINOTRANSFERASE / ALBUMIN / ALKALINE PHOSPHATASE / ASPARTATE AMINOTRANSFERASE / BLOOD UREA NITROGEN / CARBON DIOXIDE / CHLORIDE / CHOLESTEROL / CREATINE PHOSPHOKINASE / CREATININE / GLUCOSE / LACTATE DEHYDROGENASE / LIPASE / PHOSPHORUS / POTASSIUM / SODIUM / TOTAL BILIRUBIN / TOTAL PROTEIN / URIC ACID: tissue Plasma
[1] = 0 mg/kg, 72 h, dose level Control, time 3 day
[2] = 0 mg/kg, 120 h, dose level Control, time 5 day
[3] = 10 mg/kg, 72 h, dose level Low, time 3 day

SMILES: CC(C)(C#N)c1cc(Cn2cncn2)cc(C(C)(C)C#N)c1 [ANASTROZOLE]
- ABSOLUTE BASOPHIL [1]: 0 CELLS/uL
- ABSOLUTE EOSINOPHIL [1]: 0 CELLS/uL
- ABSOLUTE LYMPHOCYTE [1]: 10913.67 CELLS/uL
- ABSOLUTE MONOCYTE [1]: 85.33 CELLS/uL
- ABSOLUTE SEGMENTED NEUTROPHIL [1]: 1401 CELLS/uL
- BASOPHIL [1]: 0%
- EOSINOPHIL [1]: 0%
- ERYTHROCYTE COUNT [1]: 5.57 x10E6/uL
- HEMATOCRIT [1]: 35.58%
- HEMOGLOBIN [1]: 13.8 G/DL
- LEUKOCYTE COUNT [1]: 12.4 x10E3/uL
- LYMPHOCYTE [1]: 88%
- MEAN CORPUSCULAR HEMOGLOBIN [1]: 24.78 pg
- MEAN CORPUSCULAR HEMOGLOBIN CONCENTRATION [1]: 38.82 G/DL
- MEAN CORPUSCULAR VOLUME [1]: 63.88 fL
- MONOCYTE [1]: 0.67%
- NEUTROPHIL [1]: 11.33%
- NUCLEATED RED BLOOD CELLS [1]: 0 /100WBC
- PLATELET COUNT [1]: 1162.33 x10E3/uL
- ALANINE AMINOTRANSFERASE [1]: 53 u/L
- ALBUMIN [1]: 4.17 G/DL
- ALKALINE PHOSPHATASE [1]: 374.5 u/L
- ASPARTATE AMINOTRANSFERASE [1]: 89.5 u/L
- BLOOD UREA NITROGEN [1]: 16.33 mg/dL
- CARBON DIOXIDE [1]: 29.17 mmol/L
- CHLORIDE [1]: 97.67 MEQ/L
- CHOLESTEROL [1]: 77 mg/dL
- CREATINE PHOSPHOKINASE [1]: 464.83 u/L
- CREATININE [1]: 0.14 mg/dL
- GLUCOSE [1]: 164 mg/dL
- LACTATE DEHYDROGENASE [1]: 155.5 u/L
- LIPASE [1]: 9.17 u/L
- PHOSPHORUS [1]: 12.4 mg/dL
- POTASSIUM [1]: 6.91 MEQ/L
- SODIUM [1]: 141.47 MEQ/L
- TOTAL BILIRUBIN [1]: 0.2 mg/dL
- TOTAL PROTEIN [1]: 5.95 G/DL
- URIC ACID [1]: 1.72 mg/dL
- ABSOLUTE BASOPHIL [2]: 0 CELLS/uL
- ABSOLUTE EOSINOPHIL [2]: 20.5 CELLS/uL
- ABSOLUTE LYMPHOCYTE [2]: 13871.67 CELLS/uL
- ABSOLUTE MONOCYTE [2]: 60.5 CELLS/uL
- ABSOLUTE SEGMENTED NEUTROPHIL [2]: 980.67 CELLS/uL
- BASOPHIL [2]: 0%
- EOSINOPHIL [2]: 0.17%
- ERYTHROCYTE COUNT [2]: 5.65 x10E6/uL
- HEMATOCRIT [2]: 35.63%
- HEMOGLOBIN [2]: 14.08 G/DL
- LEUKOCYTE COUNT [2]: 14.93 x10E3/uL
- LYMPHOCYTE [2]: 92.83%
- MEAN CORPUSCULAR HEMOGLOBIN [2]: 24.97 pg
- MEAN CORPUSCULAR HEMOGLOBIN CONCENTRATION [2]: 39.55 G/DL
- MEAN CORPUSCULAR VOLUME [2]: 63.13 fL
- MONOCYTE [2]: 0.33%
- NEUTROPHIL [2]: 6.67%
- NUCLEATED RED BLOOD CELLS [2]: 0 /100WBC
- PLATELET COUNT [2]: 1248.17 x10E3/uL
- ALANINE AMINOTRANSFERASE [2]: 45.17 u/L
- ALBUMIN [2]: 4.27 G/DL
- ALKALINE PHOSPHATASE [2]: 405.67 u/L
- ASPARTATE AMINOTRANSFERASE [2]: 74.17 u/L
- BLOOD UREA NITROGEN [2]: 15.5 mg/dL
- CARBON DIOXIDE [2]: 30.17 mmol/L
- CHLORIDE [2]: 100.67 MEQ/L
- CHOLESTEROL [2]: 57 mg/dL
- CREATINE PHOSPHOKINASE [2]: 239.5 u/L
- CREATININE [2]: 0.17 mg/dL
- GLUCOSE [2]: 165.67 mg/dL
- LACTATE DEHYDROGENASE [2]: 90.5 u/L
- LIPASE [2]: 8.83 u/L
- PHOSPHORUS [2]: 12.32 mg/dL
- POTASSIUM [2]: 7.03 MEQ/L
- SODIUM [2]: 142.65 MEQ/L
- TOTAL BILIRUBIN [2]: 0.18 mg/dL
- TOTAL PROTEIN [2]: 6.03 G/DL
- URIC ACID [2]: 1.98 mg/dL
- ABSOLUTE BASOPHIL [3]: 0 CELLS/uL
- ABSOLUTE EOSINOPHIL [3]: 62 CELLS/uL
- ABSOLUTE LYMPHOCYTE [3]: 13335.67 CELLS/uL
- ABSOLUTE MONOCYTE [3]: 144.33 CELLS/uL
- ABSOLUTE SEGMENTED NEUTROPHIL [3]: 2091.33 CELLS/uL
- BASOPHIL [3]: 0%
- EOSINOPHIL [3]: 0.33%
- ERYTHROCYTE COUNT [3]: 5.84 x10E6/uL
- HEMATOCRIT [3]: 36.23%
- HEMOGLOBIN [3]: 14.47 G/DL
- LEUKOCYTE COUNT [3]: 15.63 x10E3/uL
- LYMPHOCYTE [3]: 85%
- MEAN CORPUSCULAR HEMOGLOBIN [3]: 24.77 pg
- MEAN CORPUSCULAR HEMOGLOBIN CONCENTRATION [3]: 39.93 G/DL
- MEAN CORPUSCULAR VOLUME [3]: 62 fL
- MONOCYTE [3]: 1%
- NEUTROPHIL [3]: 13.67%
- NUCLEATED RED BLOOD CELLS [3]: 0 /100WBC
- PLATELET COUNT [3]: 1170.33 x10E3/uL
- ALANINE AMINOTRANSFERASE [3]: 55.67 u/L
- ALBUMIN [3]: 4.13 G/DL
- ALKALINE PHOSPHATASE [3]: 405 u/L
- ASPARTATE AMINOTRANSFERASE [3]: 89.67 u/L
- BLOOD UREA NITROGEN [3]: 18.67 mg/dL
- CARBON DIOXIDE [3]: 29 mmol/L
- CHLORIDE [3]: 97 MEQ/L
- CHOLESTEROL [3]: 77 mg/dL
- CREATINE PHOSPHOKINASE [3]: 289.33 u/L
- CREATININE [3]: 0.1 mg/dL
- GLUCOSE [3]: 149.33 mg/dL
- LACTATE DEHYDROGENASE [3]: 219.33 u/L
- LIPASE [3]: 9.33 u/L
- PHOSPHORUS [3]: 13.03 mg/dL
- POTASSIUM [3]: 6.88 MEQ/L
- SODIUM [3]: 142.57 MEQ/L
- TOTAL BILIRUBIN [3]: 0.27 mg/dL
- TOTAL PROTEIN [3]: 5.8 G/DL
